Test results taken from patent US7163940B2, “Pyrazolopyridinyl pyrimidine therapeutic compounds” (SmithKline Beecham Corporation, priority 2000, dated 2007).
pIC50: −log10 of the molar value.

tested on: HSV-1; assay: HSV-1 replication in infected Vero 76 cells, viral DNA hybridization capture assay; format: cell-based; conditions: Human alphaherpesvirus 1, Vero 76, HSV-1, Vero 76 cells, MOI=0.001, 40–48 hours incubation
Description: Vero 76 cells were maintained in MEM with Earle's salts, L-glutamine, 8% FBS (Hyclone, A-1111-L) and 100 units/mL Penicillin-100 μg/mL Streptomycin. For assay conditions, FBS was reduced to 2%. Cells are seeded into 96-well tissue culture plates at a density of 5×10^4 cells/well after being incubated for 45 min at 37° C. in the presence of HSV-1 or HSV-2 (MOI=0.001). Test compounds are added to the wells and the plates are incubated at 37° C. for 40–48 hours. Cell lysates are prepared as follows: media was removed and replaced with 150 μL/well 0.2 N NaOH with 1% Igepal CA 630 or NP-40. Plates were incubated up to 14 days at room temperature in a humidified chamber to prevent evaporation. • (b) Preparation of Detection DNA.
For the detection probe, a gel-purified, digoxigenin-labeled, […] PCR fragment of the HSV UL-15 sequence was utilized. PCR conditions included 0.5 μM primers, 180 μM dTP, 20 μM dUTP-digoxigenin (Boehringer Mannheim 1558706), 200 μM each of dATP, dCTP, and dGTP, 1×PCR Buffer II (Perkin Elmer), 2.5 mM MgCl2, 0.025 units/μL of AmpliTaq Gold polymerase (Perkin Elmer), and 5 ng of gel-purified HSV DNA per 100 μL. Extension conditions were 10 min at 95° C., followed by 30 cycles of 95° C. for 1 min, 55° C. for 30 sec, and 72° C. for 2 min. The amplification was completed with a 10-min incubation at 72° C. Primers were selected to amplify a 728 bp probe spanning a section of the HSV1 UL15 open reading frame (nucleotides 249–977). Single-stranded transcripts were purified with Promega M13 Wizard kits. The final product was mixed 1:1 with a mixture of 6 M GuSCN, 100 mM EDTA and 200 μg/mL herring sperm DNA and stored at 4° C. • (c) Preparation of Capture Plates.
The capture DNA plasmid (HSV UL13 region in pUC) was linearized by cutting with Xba I, denatured for 15 min at 95° C. and diluted immediately into Reacti-Bind DNA Coating Solution (Pierce, 17250, diluted 1:1 with TE buffer, pH 8) at 1 ng/μL 75 μL/well were added to Corning (#3922 or 9690) white 96-well plates and incubated at room temperature for at least 4 hrs before washing twice with 300 μL/well 0.2×SSC/0.05% Tween-20 (SSC/T buffer). The plates were then incubated overnight at room temperature with 150 μL/well 0.2 N NaOH, 1% IGEPAL and 10 μg/mL herring sperm DNA. • (d) Hybridization.
Twenty-seven (27) μL of cell lysate was combined with 45 μL of hybridization solution (final concentration: 3M GuSCN, 50 mM EDTA, 100 μg/ml salmon sperm DNA, 5× Denhardt's solution, 0.25×APE, and 5 ng of the digoxigenin-labeled detection probe). APE is 1.5 M NH4-acetate, 0.15 M ammonium phosphate, and 5 mM EDTA adjusted to pH 6.0. Mineral oil (50 μL) was added to prevent evaporation. The hybridization plates were incubated at 95° C. for 10 minutes to denature the DNA, then incubated at 42° C. overnight. The wells were washed 6× with 300 μL/well SSC/T buffer then incubated with 75 μL/well anti-digoxigenin-HRP-conjugated antibody (Boehringer Mannheim 1207733, 1:5000 in TE) for 30 min at room temperature. The wells were washed 6× with 300 μL/well with PBS/0.05% Tween-20 before 75 μL/well SuperSignal LBA substrate (Pierce) was added. The plates were incubated at room temperature for 30 minutes and chemiluminescence was measured in a Wallac Victor reader. • e) Results.
The following results were obtained for HSV-1.

| SMILES | pIC50 |
| --- | --- |
| CCCCNc1nccc(-c2c(-c3ccc(F)cc3)nn3c(NCCOC)cccc23)n1 [Example 48, 3-[2-(Butylamino)-4-pyrimidinyl]-2-(4-fluorophenyl)-N-(2-methoxyethyl)pyrazolo[1,5-α]pyridin-7-amine] | 6.52 |
| CN(C)c1nccc(-c2c(-c3ccc(F)cc3)nn3c(NC4CCCC4)cccc23)n1 [Example 11, N-Cyclopentyl-3-[2-(dimethylamino)-4-pyrimidinyl]-2-(4-fluorophenyl)pyrazolo[1,5-α]pyridin-7-amine] | 6.00 |
| CCCCNc1cccc2c(-c3ccnc([S+](C)[O-])n3)c(-c3ccc(F)cc3)nn12 (stereo not drawn) [Example 37, N-Butyl-2-(4-fluorophenyl)-3-[2-(methylsulfinyl)-4-pyrimidinyl]-pyrazolo[1,5-α]pyridin-7-amine] | 4.82 |
| Fc1ccc(-c2nn3c(NC4CCCC4)cccc3c2-c2cc(-c3ccccc3)nc(NC3CCCC3)n2)cc1 [Example 82, N-Cyclopentyl-3-[2-(cyclopentylamino)-6-phenylpyrimidin-4-yl]-2-(4-fluorophenyl)pyrazolo[1,5-α]pyridin-7-amine] | < 4.70 |
| Fc1ccc(-c2nn3c(Cl)cccc3c2-c2ccnc(NC3CC3)n2)cc1 [Example 79, 4-[7-Chloro-2-(4-fluorophenyl)pyrazolo[1,5-α]pyridin-3-yl]-N-cyclopropylpyrimidin-2-amine] | < 4.70 |
| CCCCNc1cccc2c(-c3ccnc(NCCN4CCOCC4)n3)c(-c3ccc(F)cc3)nn12 [Example 45, N-Butyl-2-(4-fluorophenyl)-3-(2-{[2-(4-morpholinyl)ethyl]amino}-4-pyrimidinyl)pyrazolo[1,5-α]pyridin-7-amine] | 5.30 |
| CCCCNc1cccc2c(-c3ccnc(NCc4ccccn4)n3)c(-c3ccc(F)cc3)nn12 [Example 43, N-Butyl-2-(4-fluorophenyl)-3-{2-[(2-pyridinylmethyl)amino]-4-pyrimidinyl}pyrazolo[1,5-α]pyridin-7-amine] | 5.52 |
| CCCCNc1nccc(-c2c(-c3ccc(F)cc3)nn3c(NC)cccc23)n1 [Example 49, 3-[2-(Butylamino)-4-pyrimidinyl]-2-(4-fluorophenyl)-N-methylpyrazolo[1,5-α]pyridin-7-amine] | 5.92 |
| CCCCNc1cccc2c(-c3ccnc(OCCN4CCOCC4)n3)c(-c3ccc(F)cc3)nn12 [Example 46, N-Butyl-2-(4-fluorophenyl)-3-{2-[2-(4-morpholinyl)ethoxy]-4-pyrimidinyl}pyrazolo[1,5-α]pyridin-7-amine] | 5.15 |
| CCCCNc1nccc(-c2c(-c3ccc(F)cc3)nn3c(N(C)C)cccc23)n1 [Example 34, 3-[2-(Butylamino)-4-pyrimidinyl]-2-(4-fluorophenyl)-N,N-dimethylpyrazolo[1,5-α]pyridin-7-amine] | 6.52 |
| Cc1cnc(NC2CCCC2)nc1-c1c(-c2ccc(F)cc2)nn2c(NC3CCCC3)cccc12 [Example 53, N-Cyclopentyl-3-[2-(cyclopentylamino)-5-methyl-4-pyrimidinyl]-2-(4-fluorophenyl)pyrazolo[1,5-α]pyridin-7-amine] | 6.00 |
| Cc1cc(-c2c(-c3ccc(F)cc3)nn3c(N)cccc23)nc(NC2CCCC2)n1 [Example 72, 3-[2-(Cyclopentylamino)-6-methylpyrimidin-4-yl]-2-(4-fluorophenyl)pyrazolo[1,5-α]pyridin-7-amine] | 5.36 |
| O=C(O)c1cc(-c2c(-c3ccc(F)cc3)nn3c(Cl)cccc23)nc(NC2CCCC2)n1 [Example 27, 6-[7-Chloro-2-(4-fluorophenyl)pyrazolo[1,5-α]pyridin-3-yl]-2-(cyclopentylamino)-4-pyrimidinecarboxylic acid] | 5.89 |
| Fc1ccc(-c2nn3c(Cl)cccc3c2-c2ccnc(-c3ccccc3)n2)cc1 [Example 73, 7-Chloro-2-(4-fluorophenyl)-3-(2-phenylpyrimidin-4-yl)pyrazolo[1,5-α]pyridine] | < 4.70 |
| Nc1nccc(-c2c(-c3ccc(F)cc3)nn3c(NC4CCCC4)cccc23)n1 [Example 12, 3-(2-Amino-4-pyrimidinyl)-N-cyclopentyl-2-(4-fluorophenyl)pyrazolo[1,5-α]pyridin-7-amine] | 6.30 |
